Results reported in ChEMBL document CHEMBL1147563, “Solid-phase synthesis and SAR of 4-carboxy-2-azetidinone mechanism-based tryptase inhibitors” (Bioorg Med Chem Lett, 2004).

Columns and labels:
Serine protease 1 [1] = molecular target: T1, Serine protease 1 (Bos taurus, UniProt P00760); experiment: Inhibitory activity against bovine trypsin
T1 sequence (P00760 whole entry): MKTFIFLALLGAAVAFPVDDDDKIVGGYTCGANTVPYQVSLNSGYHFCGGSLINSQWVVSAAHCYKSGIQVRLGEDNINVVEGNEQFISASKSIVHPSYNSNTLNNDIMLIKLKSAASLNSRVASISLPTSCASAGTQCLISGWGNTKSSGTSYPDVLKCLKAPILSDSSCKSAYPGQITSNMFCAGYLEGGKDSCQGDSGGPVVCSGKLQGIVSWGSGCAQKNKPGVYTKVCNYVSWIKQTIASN

Tryptase = Tryptase (Homo sapiens, UniProt Q9BZJ3+Q15661+Q9NRR2); experiment: Inhibitory activity against human tryptase
Coagulation factor X = Coagulation factor X (Homo sapiens, UniProt P00742); experiment: Inhibitory activity against Coagulation factor X
Plasminogen = Plasminogen (Rattus norvegicus, UniProt Q01177); experiment: Inhibitory activity against plasmin
[2] = molecular target: Tissue-type plasminogen activator (Homo sapiens, UniProt P00750); experiment: Inhibitory activity against tissue type plasminogen activator
Serine protease 1 [3] = molecular target: Serine protease 1 (Homo sapiens, UniProt P07477); experiment: Inhibitory activity against trypsin
Prothrombin = Prothrombin (Homo sapiens, UniProt P00734); experiment: Inhibitory activity against thrombin
[4] = molecular target: Urokinase-type plasminogen activator (Homo sapiens, UniProt P00749); experiment: Inhibitory activity against Urokinase-type plasminogen activator
[5] = molecular target: T2, Serine protease 1 (Bos taurus) (UniProt P00760); experiment: Inhibition of bovine trypsin at 0.2 uM
T2 sequence (whole entry): T1 sequence (P00760 whole entry)

Plasminogen, sequence (Q01177 97-581 limits assumed): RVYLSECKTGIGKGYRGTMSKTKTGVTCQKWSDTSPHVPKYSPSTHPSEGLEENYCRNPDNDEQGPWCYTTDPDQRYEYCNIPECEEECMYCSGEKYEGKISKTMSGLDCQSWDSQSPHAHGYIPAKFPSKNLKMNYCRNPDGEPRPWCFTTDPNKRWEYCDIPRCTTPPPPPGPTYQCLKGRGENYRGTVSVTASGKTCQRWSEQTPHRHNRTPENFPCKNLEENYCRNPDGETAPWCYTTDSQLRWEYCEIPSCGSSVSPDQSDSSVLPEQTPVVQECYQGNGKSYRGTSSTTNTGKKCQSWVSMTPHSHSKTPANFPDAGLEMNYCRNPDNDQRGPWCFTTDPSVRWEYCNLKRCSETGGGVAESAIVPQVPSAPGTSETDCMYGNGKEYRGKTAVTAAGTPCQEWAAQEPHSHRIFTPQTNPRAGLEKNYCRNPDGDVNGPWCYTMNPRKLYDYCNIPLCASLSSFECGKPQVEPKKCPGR
Plasminogen, sequence (Q01177 582-812 limits assumed): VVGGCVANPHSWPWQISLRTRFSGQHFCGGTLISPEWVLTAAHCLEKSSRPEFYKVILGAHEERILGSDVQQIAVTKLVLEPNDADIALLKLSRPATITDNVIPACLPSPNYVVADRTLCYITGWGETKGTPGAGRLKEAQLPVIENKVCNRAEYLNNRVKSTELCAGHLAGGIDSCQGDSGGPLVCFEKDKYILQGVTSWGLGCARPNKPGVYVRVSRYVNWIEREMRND
Tissue-type plasminogen activator, sequence (P00750 whole entry): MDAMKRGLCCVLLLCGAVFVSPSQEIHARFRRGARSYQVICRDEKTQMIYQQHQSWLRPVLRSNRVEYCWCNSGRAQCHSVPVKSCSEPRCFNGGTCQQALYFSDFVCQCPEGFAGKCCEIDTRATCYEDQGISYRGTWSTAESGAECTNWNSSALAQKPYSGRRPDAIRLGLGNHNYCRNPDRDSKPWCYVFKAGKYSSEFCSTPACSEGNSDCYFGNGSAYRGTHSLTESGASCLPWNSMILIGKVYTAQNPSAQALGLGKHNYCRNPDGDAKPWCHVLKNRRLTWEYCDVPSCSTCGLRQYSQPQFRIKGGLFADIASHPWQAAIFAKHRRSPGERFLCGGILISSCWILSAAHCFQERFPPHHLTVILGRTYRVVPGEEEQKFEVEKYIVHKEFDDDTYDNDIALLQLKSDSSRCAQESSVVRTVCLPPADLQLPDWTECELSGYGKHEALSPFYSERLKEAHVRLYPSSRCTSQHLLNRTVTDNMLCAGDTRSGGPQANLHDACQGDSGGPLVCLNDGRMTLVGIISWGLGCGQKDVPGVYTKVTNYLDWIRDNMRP
Serine protease 1 (Homo sapiens, UniProt P07477), sequence (P07477 whole entry): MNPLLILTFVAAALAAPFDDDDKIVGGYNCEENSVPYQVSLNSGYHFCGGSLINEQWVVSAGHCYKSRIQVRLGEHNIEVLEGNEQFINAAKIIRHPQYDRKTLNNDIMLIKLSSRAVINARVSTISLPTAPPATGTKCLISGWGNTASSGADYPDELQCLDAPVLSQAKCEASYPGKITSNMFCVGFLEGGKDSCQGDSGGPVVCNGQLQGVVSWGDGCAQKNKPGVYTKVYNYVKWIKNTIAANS
Coagulation factor X, sequence (P00742 41-179 limits assumed): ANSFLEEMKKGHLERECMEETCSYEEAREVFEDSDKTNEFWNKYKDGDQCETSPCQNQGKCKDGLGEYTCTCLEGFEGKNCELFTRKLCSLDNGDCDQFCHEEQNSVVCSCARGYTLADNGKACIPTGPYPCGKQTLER
Coagulation factor X, sequence (P00742 235-488 limits assumed): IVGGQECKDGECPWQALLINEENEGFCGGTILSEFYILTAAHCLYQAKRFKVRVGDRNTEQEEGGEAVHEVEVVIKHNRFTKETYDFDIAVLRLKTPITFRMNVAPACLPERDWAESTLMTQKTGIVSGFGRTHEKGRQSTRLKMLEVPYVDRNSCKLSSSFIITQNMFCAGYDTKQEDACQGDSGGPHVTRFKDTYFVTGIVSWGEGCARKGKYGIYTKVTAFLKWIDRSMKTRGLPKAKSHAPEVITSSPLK

Work on `N=C(N)N1CCC[C@H](C[C@H]2C(=O)N(C(=O)N3CCN(C(=O)CCCCCc4ccccc4)CC3)[C@@H]2C(=O)O)C1` yielded an IC50 (Serine protease 1 [1]) of 5760 nM and an IC50 (Tryptase) of 1.7 nM.

`CC(C)(C)NC(=O)N1CCN(C(=O)N2C(=O)[C@H](CC3CCNCC3)[C@H]2C(=O)O)CC1` was tested, and the IC50 (Coagulation factor X) was > 1100 nM, the IC50 (Plasminogen) was 250 nM and the IC50 (Serine protease 1 [1]) was 1900 nM. The IC50 [2] was > 1100 nM, the IC50 (Tryptase) was 30 nM and the IC50 (Serine protease 1 [3]) was 62 nM. For the same compound, the IC50 (Prothrombin) was > 1100 nM and the IC50 [4] was 34 nM.

With `CC(=O)Nc1ccsc1C(=O)N1CCN(C(=O)N2C(=O)[C@H](CC3CCNCC3)C2C(=O)O)CC1` (single isomer, unassigned) the inhibition [5] was 68% and the IC50 (Tryptase) was 190 nM.

In the case of `O=C(O)C1[C@@H](CC2CCNCC2)C(=O)N1C(=O)N1CCN(C(=O)Cc2ccc(Oc3ccccc3)cc2)CC1` (single isomer, unassigned), the IC50 (Serine protease 1 [1]) is reported as 950 nM and the IC50 (Tryptase) is reported as 5 nM.

For `O=C(O)C1[C@@H](CC2CCNCC2)C(=O)N1C(=O)N1CCN(C(=O)Cc2ccc3c(c2)CCCC3)CC1` (single isomer, unassigned), the inhibition [5] was 18% and the IC50 (Tryptase) was 30 nM.

For `O=C(O)C1[C@@H](CC2CCNCC2)C(=O)N1C(=O)N1CCN(C(=O)CCCCCc2ccc3ccccc3c2)CC1` (single isomer, unassigned), the IC50 (Serine protease 1 [1]) was 320 nM and the IC50 (Tryptase) was 1 nM.

`COc1cccc(CCC(=O)N2CCN(C(=O)N3C(=O)[C@H](CC4CCNCC4)C3C(=O)O)CC2)c1` (single isomer, unassigned) gave an IC50 (Serine protease 1 [1]) of 810 nM and an IC50 (Tryptase) of 14 nM.

`O=C(O)C1[C@@H](CC2CCNCC2)C(=O)N1C(=O)N1CCN(C(=O)Cc2cccc(Oc3ccccc3)c2)CC1` (single isomer, unassigned) gave an IC50 (Serine protease 1 [1]) of 970 nM and an IC50 (Tryptase) of 17 nM.

`O=C(O)C1[C@@H](CC2CCNCC2)C(=O)N1C(=O)N1CCN(C(=O)CCCCc2ccccc2)CC1` (single isomer, unassigned) gave an IC50 (Serine protease 1 [1]) of 810 nM and an IC50 (Tryptase) of 6 nM.

In the case of `O=C(O)C1[C@@H](CC2CCNCC2)C(=O)N1C(=O)N1CCN(C(=O)c2ccccc2-c2ccccc2)CC1` (single isomer, unassigned), the inhibition [5] is reported as 46% and the IC50 (Tryptase) is reported as 42 nM.

Compound `O=C(O)C1[C@@H](CC2CCNCC2)C(=O)N1C(=O)N1CCN(C(=O)c2cc3ccccc3o2)CC1` (single isomer, unassigned) has an inhibition [5] of 89% and an IC50 (Tryptase) of 21 nM.

Compound `Cc1onc(-c2ccccc2)c1C(=O)N1CCN(C(=O)N2C(=O)[C@H](CC3CCNCC3)C2C(=O)O)CC1` (single isomer, unassigned) has an inhibition [5] of 31% and an IC50 (Tryptase) of 290 nM.

`O=C(O)C1[C@@H](CC2CCNCC2)C(=O)N1C(=O)N1CCN(C(=O)c2ccccc2CCc2ccccc2)CC1` (single isomer, unassigned) was tested, and the inhibition [5] was 60% and the IC50 (Tryptase) was 140 nM.

Compound `O=C(O)C1[C@@H](CC2CCNCC2)C(=O)N1C(=O)N1CCN(C(=O)CCCCCCc2ccccc2)CC1` (single isomer, unassigned) has an IC50 (Serine protease 1 [1]) of 1300 nM and an IC50 (Tryptase) of 5 nM.

`CC1=NN(c2ccc(C(=O)N3CCN(C(=O)N4C(=O)[C@H](CC5CCNCC5)C4C(=O)O)CC3)cc2)C(=O)C1` (single isomer, unassigned) was tested, and the inhibition [5] was 91% and the IC50 (Tryptase) was 380 nM.

`O=C(O)C1[C@@H](CC2CCNCC2)C(=O)N1C(=O)N1CCN(C(=O)CCCC2CCCCC2)CC1` (single isomer, unassigned) was tested, and the inhibition [5] was 40% and the IC50 (Tryptase) was 24 nM.

For `O=C(O)C1[C@@H](CC2CCNCC2)C(=O)N1C(=O)N1CCN(C(=O)c2cccc(Oc3ccccc3)c2)CC1` (single isomer, unassigned), the inhibition [5] was 78% and the IC50 (Tryptase) was 15 nM.

`Cc1cccc(CCC(=O)N2CCN(C(=O)N3C(=O)[C@H](CC4CCNCC4)C3C(=O)O)CC2)c1` (single isomer, unassigned) was tested, and the IC50 (Serine protease 1 [1]) was 1200 nM and the IC50 (Tryptase) was 13 nM.

`O=C(O)C1[C@@H](CC2CCNCC2)C(=O)N1C(=O)N1CCN(C(=O)c2ccc(Oc3ccccc3)cc2)CC1` (single isomer, unassigned) was tested, and the IC50 (Serine protease 1 [1]) was 140 nM and the IC50 (Tryptase) was 7 nM.

`O=C(O)C1[C@@H](CC2CCNCC2)C(=O)N1C(=O)N1CCN(C(=O)Cc2ccc(OCc3ccccc3)cc2)CC1` (single isomer, unassigned) was tested, and the IC50 (Plasminogen) was 380 nM, the IC50 (Serine protease 1 [1]) was 440 nM and the IC50 [2] was > 33000 nM. It also gave an IC50 (Tryptase) of 1 nM, an IC50 (Serine protease 1 [3]) of 440 nM and an IC50 [4] of 1210 nM.

Compound `O=C(NCCCC(=O)N1CCN(C(=O)N2C(=O)[C@H](CC3CCNCC3)C2C(=O)O)CC1)OCc1ccccc1` (single isomer, unassigned) has an IC50 (Serine protease 1 [1]) of 1200 nM and an IC50 (Tryptase) of 6 nM.

`O=C(O)C1[C@@H](CC2CCNCC2)C(=O)N1C(=O)N1CCN(C(=O)CCCCCc2ccccc2)CC1` (single isomer, unassigned) was tested, and the IC50 (Plasminogen) was 170 nM, the IC50 (Serine protease 1 [1]) was 310 nM and the IC50 [2] was > 33000 nM. The IC50 (Serine protease 1 [3]) was 310 nM and the IC50 [4] was 970 nM.

`Cc1ccc(C2=CN=C(CCC(=O)N3CCN(C(=O)N4C(=O)[C@H](CC5CCNCC5)C4C(=O)O)CC3)C2=O)cc1` (single isomer, unassigned) gave an IC50 (Serine protease 1 [1]) of 1800 nM and an IC50 (Tryptase) of 5 nM.

`O=C(O)C1[C@@H](CC2CCNCC2)C(=O)N1C(=O)N1CCN(C(=O)CCCCCCCc2ccccc2)CC1` (single isomer, unassigned) was tested, and the IC50 (Serine protease 1 [1]) was 1300 nM and the IC50 (Tryptase) was 5 nM.

For `O=C(CCC(=O)N1CCN(C(=O)N2C(=O)[C@H](CC3CCNCC3)C2C(=O)O)CC1)NCCc1ccccc1` (single isomer, unassigned), the IC50 (Serine protease 1 [1]) was 1900 nM and the IC50 (Tryptase) was 17 nM.

`O=C1CC[C@@H](C(=O)N2CCN(C(=O)N3C(=O)[C@H](CC4CCNCC4)C3C(=O)O)CC2)N1` (single isomer, unassigned) was tested, and the inhibition [5] was 69% and the IC50 (Tryptase) was 170 nM.

`O=C(O)C1[C@@H](CC2CCNCC2)C(=O)N1C(=O)N1CCN(C(=O)c2ccc(CCCc3ccccc3)cc2)CC1` (single isomer, unassigned) showed an IC50 (Serine protease 1 [1]) of 310 nM and an IC50 (Tryptase) of 6 nM.

Work on `O=C(O)C1[C@@H](CC2CCNCC2)C(=O)N1C(=O)N1CCN(C(=O)CCCc2ccc3ccccc3c2)CC1` (single isomer, unassigned) yielded an IC50 (Serine protease 1 [1]) of 600 nM and an IC50 (Tryptase) of 10 nM.

In the case of `O=C(O)C1[C@@H](CC2CCNCC2)C(=O)N1C(=O)N1CCN(C(=O)CCCc2nc(-c3ccc(Cl)cc3)no2)CC1` (single isomer, unassigned), the IC50 (Serine protease 1 [1]) is reported as 150 nM and the IC50 (Tryptase) is reported as 5 nM.

`O=C(O)C1[C@@H](CC2CCNCC2)C(=O)N1C(=O)N1CCN(C(=O)c2ccc(OCc3ccccc3)cc2)CC1` (single isomer, unassigned) showed an IC50 (Serine protease 1 [1]) of 120 nM and an IC50 (Tryptase) of 4 nM.

Work on `O=C(CCCC(=O)N1CCN(C(=O)N2C(=O)[C@H](CC3CCNCC3)C2C(=O)O)CC1)Nc1ccccc1` (single isomer, unassigned) yielded an IC50 (Serine protease 1 [1]) of 1350 nM and an IC50 (Tryptase) of 12 nM.

For `CC(C)(C)NC(=O)N1CCN(C(=O)N2C(=O)[C@H](CCCN=C(N)N)C2C(=O)O)CC1` (single isomer, unassigned), the IC50 (Plasminogen) was 430 nM, the IC50 (Serine protease 1 [1]) was 72 nM and the IC50 [2] was > 8250 nM. The IC50 (Serine protease 1 [3]) was 4.5 nM.

For `O=C(O)C1[C@@H](CC2CCNCC2)C(=O)N1C(=O)N1CCN(C(=O)Cc2ccc(-c3ccccc3)cc2)CC1` (single isomer, unassigned), the IC50 (Serine protease 1 [1]) was 740 nM and the IC50 (Tryptase) was 5 nM.

Work on `O=C(O)C1[C@@H](CC2CCNCC2)C(=O)N1C(=O)N1CCN(C(=O)c2cc3cc(F)ccc3[nH]2)CC1` (single isomer, unassigned) yielded an inhibition [5] of 63% and an IC50 (Tryptase) of 450 nM.

`O=C(O)C1[C@@H](CC2CCNCC2)C(=O)N1C(=O)N1CCN(C(=O)c2ccccc2Oc2ccccc2)CC1` (single isomer, unassigned) was tested, and the inhibition [5] was 2% and the IC50 (Tryptase) was 120 nM.

`O=C(O)C1[C@@H](CC2CCNCC2)C(=O)N1C(=O)N1CCN(C(=O)c2ccc3ccccc3n2)CC1` (single isomer, unassigned) was tested, and the inhibition [5] was 51% and the IC50 (Tryptase) was 110 nM.

`O=C(O)C1[C@@H](CC2CCNCC2)C(=O)N1C(=O)N1CCN(C(=O)Cc2ccc3ccccc3c2)CC1` (single isomer, unassigned) was tested, and the inhibition [5] was 22% and the IC50 (Tryptase) was 70 nM.

In the case of `O=C(O)C1[C@@H](CC2CCNCC2)C(=O)N1C(=O)N1CCN(C(=O)Cc2ccc(CCCc3ccccc3)cc2)CC1` (single isomer, unassigned), the IC50 (Serine protease 1 [1]) is reported as 1580 nM and the IC50 (Tryptase) is reported as 9 nM.

Compound `O=C(O)C1[C@@H](CC2CCNCC2)C(=O)N1C(=O)N1CCN(C(=O)CCCCCc2cccc3ccccc23)CC1` (single isomer, unassigned) has an IC50 (Serine protease 1 [1]) of 240 nM and an IC50 (Tryptase) of 1 nM.

Work on `CCCCCCc1ccc(-c2ccc(C(=O)N3CCN(C(=O)N4C(=O)[C@H](CC5CCNCC5)C4C(=O)O)CC3)cc2)cc1` (single isomer, unassigned) yielded an IC50 (Serine protease 1 [1]) of 1200 nM and an IC50 (Tryptase) of 120 nM.

`O=C(O)C1[C@@H](CC2CCNCC2)C(=O)N1C(=O)N1CCN(C(=O)CCCCCCc2cccc3ccccc23)CC1` (single isomer, unassigned) showed an IC50 (Serine protease 1 [1]) of 320 nM and an IC50 (Tryptase) of 1 nM.

Compound `O=C(O)C1[C@@H](CC2CCNCC2)C(=O)N1C(=O)N1CCN(C(=O)c2ccc(-c3ccccc3)cc2)CC1` (single isomer, unassigned) has an IC50 (Serine protease 1 [1]) of 120 nM and an IC50 (Tryptase) of 6 nM.

`O=C(O)C1[C@@H](CC2CCNCC2)C(=O)N1C(=O)N1CCN(C(=O)c2ccc(C3CCCCC3)cc2)CC1` (single isomer, unassigned) gave an inhibition [5] of 76% and an IC50 (Tryptase) of 40 nM.

With `O=C(O)C1[C@@H](CC2CCNCC2)C(=O)N1C(=O)N1CCN(C(=O)Cc2ccc3c(c2)OCO3)CC1` (single isomer, unassigned) the inhibition [5] was 19% and the IC50 (Tryptase) was 55 nM.

In the case of `O=C(O)C1[C@@H](CC2CCNCC2)C(=O)N1C(=O)N1CCN(C(=O)c2ccc3ccccc3c2)CC1` (single isomer, unassigned), the inhibition [5] is reported as 72%.
